Measurements reported in PubChem BioAssay (NCI).
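Where inhibition never reached the appropriate level, the endpoint shown equals the highest concentration tested. Otherwise, values were interpolated linearly from a five-concentration, 48-hour dose response in 96-well plates. GI50 marks 50% less growth. TGI: total growth inhibition.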

Experiments:
Experiment in all cases: growth of human tumour cells (NCI), 48 h
A549 NSCLC = tested on: A549 NSCLC
HCT-15 colon = tested on: HCT-15 colon
IGROV1 ovarian = tested on: IGROV1 ovarian
KM12 colon = tested on: KM12 colon
RPMI-8226 leukemia = tested on: RPMI-8226 leukemia
RXF 393 renal = tested on: RXF 393 renal
SF-539 CNS = tested on: SF-539 CNS
SK-MEL-28 melanoma = tested on: SK-MEL-28 melanoma
SK-MEL-5 melanoma = tested on: SK-MEL-5 melanoma
SNB-19 CNS = tested on: SNB-19 CNS

SMILES | GI50 (A549 NSCLC) [µM] | TGI (A549 NSCLC) [µM] | GI50 (HCT-15 colon) [µM] | TGI (HCT-15 colon) [µM] | GI50 (IGROV1 ovarian) [µM] | TGI (IGROV1 ovarian) [µM] | GI50 (KM12 colon) [µM] | TGI (KM12 colon) [µM] | GI50 (RPMI-8226 leukemia) [µM] | TGI (RPMI-8226 leukemia) [µM] | GI50 (RXF 393 renal) [µM] | TGI (RXF 393 renal) [µM] | GI50 (SF-539 CNS) [µM] | TGI (SF-539 CNS) [µM] | GI50 (SK-MEL-28 melanoma) [µM] | TGI (SK-MEL-28 melanoma) [µM] | GI50 (SK-MEL-5 melanoma) [µM] | TGI (SK-MEL-5 melanoma) [µM] | GI50 (SNB-19 CNS) [µM] | TGI (SNB-19 CNS) [µM]
COC(=O)C(Br)(C(=O)OC)C(Br)C(Br)C(Br)c1ccccc1 (stereo unspecified) | 16.9 | 33 | 2.15 | 6.15 | 1.06 | 3.45 | 7.83 | 21 | 2.97 | 9.34 | 1.72 | 3.26 | 1.81 | 4.09 | 2.12 | 4.99 | 2.71 | 7.27 | 14.9 | 28.2
CN(C)C(=S)/N=C(\N)N(C)C | – | > 100 | – | > 100 | – | > 100 | – | > 100 | – | > 100 | – | > 100 | – | > 100 | – | > 100 | – | > 100 | – | > 100
COc1ccc(C#CC2=C(Br)C(=O)OC2)cc1 | 9.43 | 28.6 | 2.63 | 11.3 | 26.8 | > 50 | 3.05 | 11 | 2.14 | > 50 | 7.06 | 17.4 | 5.15 | 16.8 | 5.54 | 23.3 | 7.58 | 14.3 | 12 | > 50
CNC(=O)NCCCCC(NC(=O)OCc1ccccc1)C(=O)OCc1ccccc1 (stereo unspecified) | – | > 100 | – | > 100 | – | 76.4 | – | 71 | – | 51.4 | – | 33.9 | – | 38.5 | – | 60.6 | – | > 100 | – | > 100
CC(C)=CC1(C)/C(=N\O)C(C)(CC(C)C)C(=O)N1O (stereo unspecified) | – | > 100 | – | > 100 | – | > 100 | – | > 100 | – | > 100 | – | > 100 | – | > 100 | – | > 100 | – | > 100 | – | > 100
C=C(C)[C@@H]1CC[C@]2(COC(=O)c3ccccc3C(=O)O)CC[C@]3(C)[C@H](CC[C@@H]4[C@@]5(C)CC[C@H](OC(=O)c6ccccc6C(=O)O)C(C)(C)[C@@H]5CC[C@]43C)[C@@H]12 | 29.8 | > 100 | 31.3 | > 100 | 33.2 | > 100 | 8.47 | > 100 | 14.8 | > 100 | 22.6 | 77.3 | 36.3 | > 100 | 95.5 | > 100 | 99.2 | > 100 | 23.2 | > 100
CSc1ccc(NC(=O)CCl)cc1 | – | 5.79 | – | > 10 | – | > 10 | – | > 10 | – | > 10 | – | > 10 | – | > 10 | – | > 10 | – | 3.63 | – | > 10
NC1=C(/C(N)=N/O)C(c2ccccc2)c2ccc3ccccc3c2O1 (stereo unspecified) | 0.617 | > 100 | 0.226 | 20.1 | 0.459 | > 64.3 | 0.302 | 36.4 | 0.38 | 28.9 | 0.249 | 0.929 | 0.242 | 0.885 | 11.3 | 51 | 0.369 | 9.79 | 0.471 | > 100
Cn1c(=S)c2[nH]c(SCc3cccnc3)nc2n(C)c1=O | – | > 100 | – | > 100 | – | > 100 | – | > 100 | – | > 100 | – | > 100 | – | > 100 | – | > 100 | – | > 100 | – | > 100
COc1ccc(C(=O)c2cc(C)c(OC)c(C)c2)c(OC)c1OC(=O)C(Cl)Cl | 0.361 | > 100 | 0.0339 | > 100 | 0.464 | > 100 | 0.0362 | > 100 | 0.0416 | 27.8 | 0.257 | > 100 | 0.0238 | 0.0702 | 0.0632 | > 100 | 0.0521 | 0.326 | 0.0432 | > 100
COc1ccc2c(ccc3oc([N+](=O)[O-])cc32)c1 | 0.274 | 1.04 | 0.221 | 1.53 | 0.199 | 3.47 | 0.288 | 1.21 | 0.247 | 0.81 | 0.0702 | 0.223 | 0.225 | 0.595 | 0.118 | 0.323 | 0.0413 | 0.142 | 0.294 | 2.96
C=CC(=O)N1CCC(CNc2ncnc(N)c2-c2ccc(Oc3ccccc3)cc2)CC1 | 34.3 | > 100 | 26.6 | > 100 | 8.51 | 35.8 | 28.7 | > 100 | 15.1 | 42.6 | 22.4 | 85.2 | 20.6 | 71 | 34.4 | > 100 | 14.3 | 27.6 | 32.8 | > 100
COc1cc2c3c(n(CCCN=[N+]=[N-])c(=O)c2cc1OC)-c1ccc(NC(C)=O)cc1C3=O | > 50 | > 50 | > 50 | > 50 | 47.3 | > 50 | > 50 | > 50 | > 50 | > 50 | > 50 | > 50 | > 50 | > 50 | > 50 | > 50 | 11.2 | > 50 | > 50 | > 50
N#Cc1cc2c(=S)[nH]c(=S)[nH]c2nc1SCc1ccccc1 | 32.3 | > 100 | 33.4 | > 100 | 55.8 | > 100 | 29.2 | > 100 | 26.4 | > 100 | 31.8 | > 100 | 57.1 | > 100 | 69.7 | > 100 | 20.7 | 52.3 | > 100 | > 100
O=C(O)c1ccccc1C(=O)Nc1cc2c(cc1Br)-c1ccccc1C2=O | – | > 100 | – | > 100 | – | > 100 | – | > 100 | – | > 100 | – | > 100 | – | > 100 | – | > 100 | – | > 100 | – | > 100
COc1cc(-c2cn(-c3ccc(F)cc3)c(=O)[nH]2)cc(OC)c1OC | > 100 | > 100 | > 100 | > 100 | > 100 | > 100 | > 100 | > 100 | > 100 | > 100 | > 100 | > 100 | > 100 | > 100 | > 100 | > 100 | > 100 | > 100 | > 100 | > 100
NCCNc1nc2ccc(F)cc2c2c(=O)c3cc(F)ccc3sc12 | 1.73 | 3.38 | 1.78 | 3.37 | 1.04 | 2.37 | 1.81 | 3.46 | 2.18 | 5.11 | 2.33 | 7.32 | 1.76 | 3.25 | 2.05 | 4.18 | 1.68 | 3.25 | 1.94 | 4.21
O=C1Nc2cc(-c3ccc(O)cc3)ccc2/C1=C/c1ccc[nH]1 | 0.484 | > 100 | 0.0451 | > 35.3 | 0.327 | 7.22 | 0.247 | > 100 | 0.486 | > 20.3 | 0.826 | 2.45 | 0.246 | 1.53 | 0.402 | > 100 | 0.412 | > 100 | 1.06 | > 100
Fc1cccc(-c2nc(-c3c[nH]c4ncccc34)cs2)c1 | 17.7 | > 100 | > 100 | > 100 | 8.15 | > 100 | > 100 | > 100 | > 100 | > 100 | 23.1 | 90.8 | 70 | > 100 | > 100 | > 100 | > 100 | > 100 | 22.6 | > 100
Cc1cc(O)cc(-c2nn(C)cc2-c2cc(N3CCOCC3)nc(-c3cccnc3)n2)c1 | 6.54 | > 100 | 2.63 | 23.4 | 4.27 | 72.6 | 3.23 | 20.7 | 2.84 | 10.9 | 1.7 | 6.51 | 1.88 | 4.8 | 3.8 | 21.1 | 1.76 | 6.89 | 4.84 | > 100
CCOC(=O)CC1C(CNC(=O)NC)OC(n2cnc3c(NC(=O)Nc4ccccc4)ncnc32)C1O[Si](C)(C)C(C)(C)C (stereo unspecified) | 4.18 | 19.2 | 8.5 | > 100 | 3.85 | 18 | 3.95 | 20.9 | 1.09 | 4.57 | 2.01 | 4.63 | 5.19 | > 100 | 6.85 | 20.2 | 4.34 | > 100 | 29 | > 100
CCCCCCCCCCCc1cc(=O)c2c(O)cccc2o1 | – | > 100 | – | > 100 | – | > 100 | – | > 100 | – | > 100 | – | > 100 | – | > 100 | – | > 100 | – | > 100 | – | > 100
COC(=O)C[C@@H]1CC=CC(=O)/C1=C(O)/C=C/c1ccccc1 | 4.23 | 22 | 0.294 | 1.15 | 0.216 | 0.52 | 0.233 | 0.705 | 0.303 | 1.34 | 0.295 | 0.888 | 0.433 | 7.15 | 1.19 | 2.61 | 1.41 | 2.79 | 1.57 | 4.84
COc1ncc(-c2ccc3ncnc(Nc4cccc(Cl)c4)c3c2)cc1NS(C)(=O)=O | 1.2 | 13.2 | 1.66 | 13.2 | 0.189 | 0.815 | 3.55 | 16.1 | 2.19 | 9.24 | 1.42 | 4.79 | 2.09 | 9.92 | 1.81 | 41.3 | 1.37 | 3.22 | 3.19 | 31.3
N#CC1=C(N)Oc2c(ccc3cccnc23)C1c1ccccc1 (stereo unspecified) | – | > 100 | – | > 100 | – | > 100 | – | 17.1 | 2.37 | 15.1 | – | > 30.7 | – | 4.87 | – | > 75.5 | – | 13.9 | – | > 74.1
CCCCCC/C=C\CCCCCCCCCc1cccc(OC)c1O | – | > 100 | – | > 100 | – | > 100 | – | > 100 | – | > 100 | – | > 100 | – | > 100 | – | > 100 | – | > 100 | – | > 100
C=CC(=O)OCCCS(=O)(=O)[O-].C=CC(=O)OCCCS(=O)(=O)[O-].NC1CCCCC1N.[Pt+4] | > 25 | > 25 | > 25 | > 25 | > 25 | > 25 | > 25 | > 25 | > 25 | > 25 | > 25 | > 25 | > 25 | > 25 | > 25 | > 25 | > 25 | > 25 | > 25 | > 25
C=CCC(O)c1cc(OC)ccc1OC (stereo unspecified) | – | > 100 | – | > 100 | – | > 100 | – | > 100 | – | > 100 | – | > 100 | – | > 100 | – | > 100 | – | > 100 | – | > 100
O=C(Oc1c(Cl)c(Cl)c(Cl)c(Cl)c1Cl)C1CCCN1C(=O)OCc1ccccc1 (stereo unspecified) | 3.97 | 18.2 | 3.08 | 11.7 | 4 | 22 | 3.62 | 13 | 2.45 | 6.83 | 3.94 | 15.4 | 2.63 | 9.56 | 7.45 | 22.1 | 2.26 | 5.74 | 3.23 | 13.2
